From patent US5807846A, “Phosphonamide ACAT inhibitors” (Warner-Lambert Company, priority 1997, dated 1998)
Read-outs that look alike come from different tables or passages of the source.

Assays:
[1] = target: acyl-CoA:cholesterol acyltransferase (ACAT); assay: in vitro ACAT inhibition (LAI): radiolabeled cholesterol oleate formed from radiolabeled oleic acid in rat liver microsomes; assay type: biochemical; settings: read-out: LAI (IC50, concentration of test compound required to inhibit the activity of the enzyme by 50%)
Text: The test assesses the ability of a test compound to inhibit the acylation of cholesterol by oleic acid by measuring the amount of radiolabeled cholesterol oleate formed from radiolabeled oleic acid in a tissue preparation containing rat liver microsomes.

[2] = system: cholesterol; assay: APCC in vivo screen: rats on high fat, high cholesterol diet (PCC), blood cholesterol analysis; set-up: species or system male Sprague-Dawley rats
Text: In one in vivo screen designated APCC, male Sprague-Dawley rats (200 to 225 g) were randomly divided into treatment groups and dosed at 4 PM with either vehicle (CMC/Tween) or suspensions of compounds in vehicle. The normal chow diet was then replaced with a high fat, high cholesterol diet (designated PCC) containing 0.5% cholic acid. The rats consumed this diet ad libitum during the night and were sacrificed at 8 AM to obtain blood samples for cholesterol analysis using standard procedures. Statistical differences between mean cholesterol values for the same vehicle were determined using analysis of variance followed by Fisher's least significant test.

| SMILES | IC50 [1] [nM] | also measured |
| --- | --- | --- |
| COP(=O)(Cc1c(C(C)C)cc(C(C)C)cc1C(C)C)NC(=O)Cc1c(C(C)C)cc(C(C)C)cc1C(C)C (stereo not drawn) [iPr iPr OCH3 CH2, Phosphonamidic acid, N-[[2,4,6-tris(1-methylethyl)phenyl]acetyl]-P-[[2,4,6-tris(1-methylethyl)phenyl]methyl]-, methyl ester] | 740 |  |
| COP(=O)(Cc1c(C(C)C)cccc1C(C)C)NC(=O)Cc1c(C(C)C)cc(C(C)C)cc1C(C)C (stereo not drawn) [H iPr OCH3 CH2, Phosphonamidic acid, P-[[2,6-bis(1-methylethyl)phenyl]methyl]-N-[[2,4,6-tris(1-methylethyl)phenyl]acetyl]-, methyl ester] | 1200 |  |
| COP(=O)(Cc1c(C(C)C)cc(C(C)C)cc1C(C)C)NC(=O)Cc1c(C(C)C)cccc1C(C)C (stereo not drawn) [iPr H OCH3 CH2, Phosphonamidic acid, N-[[2,6-bis(1-methyl-ethyl)phenyl)acetyl]-P-[[2,4,6-tris(1-methyl-ethyl)phenyl)methyl]-, methyl ester] | 290 | APCC ([2]; rat, in vivo, 3 mg/kg): -44 |
| COP(=O)(NC(=O)Cc1c(C(C)C)cc(C(C)C)cc1C(C)C)Oc1c(C(C)C)cc(Cl)cc1C(C)C (stereo not drawn) [Cl iPr OCH3 O, Phosphoramidic acid, [[2,4,6-tris(1-methylethyl)phenyl]acetyl]-, 4-chloro-2,6-bis(1-methylethyl)phenyl methyl ester] | > 5000 | APCC ([2]; rat, in vivo, 10 mg/kg): -12 |
| CC(C)c1cc(C(C)C)c(CC(=O)NP(=O)(Oc2c(C(C)C)cccc2C(C)C)c2ccccc2)c(C(C)C)c1 (stereo not drawn) [H iPr Ph O, Phosphonamidic acid, P-phenyl-N-[[2,4,6-tris(1-methylethyl)phenyl]acetyl]-,2,6-bis(1-methylethyl)phenyl ester] | 2500 | APCC ([2]; rat, in vivo, 10 mg/kg): -25 |
| COP(=O)(NC(=O)Cc1c(C(C)C)cc(C(C)C)cc1C(C)C)Oc1c(C(C)C)cccc1C(C)C (stereo not drawn) [iPr H OCH3 O, [(2,4,6-Triisopropyl-phenyl)-acetyl]-phosphoramidic acid 2,6-diisopropyl-phenyl ester methyl ester] | 4800 | APCC ([2]; rat, in vivo, 1 mg/kg): -18 |
| CC(C)c1cc(C(C)C)c(CP(N)(=O)OCc2ccccc2)c(C(C)C)c1 (stereo not drawn) [Monobenzyl, 2,4,6-triisopropylbenzylphosphonamide] |  | APCC ([2]; dose 10 mg/kg, rats, single dose at 4 PM, PCC diet overnight, blood cholesterol at 8 AM): -4; IC50 ([1]; rat liver microsomes): 3600 nM |
